According to patent US20230210999A1, “TARGETED PROTEASE DEGRADATION (TED) PLATFORM” (EUBULUS BIOTHERAPEUTICS INC., priority 2020, published 2023):
Where two headings read alike, the source gives them in different places.

Assays:
[1] = test system: NCIH82 cells; test: Cell proliferation experiment, NCI-H82; format: cell-based, human; details: Homo sapiens
Method in brief: (§1)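 Viability measured by Alamar blue fluorescence after 72 h culture with compound (5-fold serial dilutions, two wells each) added to log-phase cells. IC50 derived from a Min/Max/Slope logistic equation.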

[2] = test system: MV4;11 cells; test: Cell proliferation experiment (Alamar blue, 72 h), MV4;11; format: cell-based, human; details: Homo sapiens
Method in brief: as §1

[3] = test system: Daudi cells; test: Cell proliferation experiment, Daudi; format: cell-based, human; details: Homo sapiens, Daudi
Method in brief: as §1

[4] = test system: U-87MG cells; test: Cell proliferation experiment, U-87MG; format: cell-based; details: Homo sapiens, 72 h, read-out: Inhibitory activity IC50 of tested compounds on U-87MG cells
Experimental: (§2) Reagents: RPMI-1640 medium, McCoy's 5A medium, IMDM medium, MEM medium, L-15 medium, fetal bovine serum. Penicillin-Streptomycin double antibody, trypsin, etc., 2-mercaptoethanol, NEAA, pyruvate, etc.
(§3) The cells were cultured in conventional ways, and the cells should be passed at least 2 generations before plating. Cells at the logarithmic growth phase were collected, prepared into single cell suspensions and counted. The concentration of cells was adjusted to the desired concentration, and cells were inoculated into a 96-well cell culture plate at 100 μl per well. 100 μL of complete medium of the test compound were added to each well, set up 2 duplicate wells for each concentration, and diluted with a 5-fold gradient, and continued to culture for 72 h. All cells were subjected to IC50 test for corresponding samples. The experimental results are shown in Test Example 4.
(§4) The fluorescence intensity of each well was detected using the Alarm blue method, and IC50 was calculated.
(§5) IC50 was calculated according to the following formula:
(§6) Y=Max+(Min−Max)/[1+(X/IC50)×Slope]
(§7) wherein Min, Max and Slope represent the minimum, maximum and slope respectively.

[5] = test system: HT-29 cells; test: Cell proliferation experiment, HT-29; format: cell-based; details: Homo sapiens, read-out: Inhibitory activity IC50 of tested compounds on HT-29 cells
Experimental: as §2, §3, §4, §5, §6, §7

[6] = test system: MDA-MB-231 cells; test: Cell proliferation experiment, MDA-MB-231; format: cell-based, human; details: Homo sapiens, MDA-MB-231, MDA-MB-231 cells; read-out: Inhibitory activity IC50 on MDA-MB-231
Method in brief: as §1

[7] = test system: PC-3; test: Cell proliferation experiment, PC-3; format: cell-based, human; details: Homo sapiens, PC-3, PC-3 cells; read-out: Inhibitory activity IC50 on PC-3
Method in brief: as §1

[8] = NCI-H82, 72 h, NCIH82 cells, 72 h, read-out: Inhibitory activity IC50 of tested compounds on NCIH82 cells
[9] = MV4-11, 72 h, MV4;11 cells, 72 h, read-out: Inhibitory activity IC50 of tested compounds on MV4;11 cells
[10] = 72 h, Daudi cells, 72 h, read-out: Inhibitory activity IC50 of tested compounds on Daudi cells
[11] = NCI-H82, NCI-H82 cells, read-out: Inhibitory activity IC50 on NCI-H82
[12] = MV4-11, MV4;11 cells, read-out: Inhibitory activity IC50 on MV4;11
[13] = Daudi cells, read-out: Inhibitory activity IC50 on Daudi

| SMILES | IC50 [6] [nM] | IC50 [1, 11] [nM] | IC50 [2, 12] [nM] | IC50 [3, 13] [nM] | IC50 [7] [nM] | other results |
| --- | --- | --- | --- | --- | --- | --- |
| CC[C@@H]1C(=O)N(C)c2cnc(Nc3ccc(C(=O)NCCCC(N)C(=O)Nc4cccc5c4CN(C4CCC(=O)NC4=O)C5=O)cc3OC)nc2N1C1CCCC1 (stereo in doubt) [Compound 856] | – | – | – | – | – | IC50 [1, 8]: > 1000 nM; IC50 [2, 9]: 100 to 1000 nM; IC50 [3, 10]: > 1000 nM; IC50 ([4]; U-87MG cells): > 1000 nM |
| CC[C@@H]1C(=O)N(C)c2cnc(Nc3ccc(C(=O)NCCOCCOCCOCCNCCC(=O)N[C@H](C(=O)N4C[C@H](O)C[C@H]4C(=O)NCc4ccc(-c5scnc5C)cc4)C(C)(C)C)cc3OC)nc2N1C1CCCC1 [Compound 850] | – | – | – | – | – | IC50 ([5]; HT-29 cells, 72 h): > 1000 nM; IC50 [1, 8]: > 1000 nM; IC50 [2, 9]: > 1000 nM; IC50 [3, 10]: > 1000 nM; IC50 ([4]; U-87MG cells): > 1000 nM |
| CC[C@@H]1C(=O)N(C)c2cnc(Nc3ccc(C(=O)NCCOCCNCC(=O)N[C@H](C(=O)N4C[C@H](O)C[C@H]4C(=O)NCc4ccc(-c5scnc5C)cc4)C(C)(C)C)cc3OC)nc2N1C1CCCC1 [Compound 851] | – | – | – | – | – | IC50 ([5]; HT-29, 72 h): > 1000 nM; IC50 ([1]; NCI-H82, 72 h, read-out: Inhibitory activity IC50 of tested compounds on NCIH82 cells): > 1000 nM; IC50 ([2]; MV4-11, 72 h, read-out: Inhibitory activity IC50 of tested compounds on MV4;11 cells): 100 to 1000 nM; IC50 ([3]; 72 h, read-out: Inhibitory activity IC50 of tested compounds on Daudi cells): > 1000 nM; IC50 ([4]; U-87 MG): > 1000 nM |
| CC[C@@H]1C(=O)N(C)c2cnc(Nc3ccc(C(=O)NC4CCN(CCNCCOCC(=O)N[C@H](C(=O)N5C[C@H](O)C[C@H]5C(=O)NCc5ccc(-c6scnc6C)cc5)C(C)(C)C)CC4)cc3OC)nc2N1C1CCCC1 [Compound 852] | – | – | – | – | – | IC50 ([5]; HT-29 cells, 72 h): > 1000 nM; IC50 [1, 8]: > 1000 nM; IC50 [2, 9]: > 1000 nM; IC50 [3, 10]: > 1000 nM; IC50 ([4]; U-87MG cells): > 1000 nM |
| CC[C@@H]1C(=O)N(C)c2cnc(Nc3ccc(C(=O)NCCOCCNCCC(=O)N[C@H](C(=O)N4C[C@H](O)C[C@H]4C(=O)NCc4ccc(-c5scnc5C)cc4)C(C)(C)C)cc3OC)nc2N1C1CCCC1 [Compound 853] | – | – | – | – | – | IC50 ([5]; HT-29 cells, 72 h): > 1000 nM; IC50 [1, 8]: > 1000 nM; IC50 [2, 9]: > 1000 nM; IC50 [3, 10]: > 1000 nM; IC50 ([4]; U-87MG cells): > 1000 nM |
| CC[C@@H]1C(=O)N(C)c2cnc(Nc3ccc(C(=O)NCCOCCNCCOCCC#Cc4cccc5c4CN(C4CCC(=O)NC4=O)C5=O)cc3OC)nc2N1C1CCCC1 (stereo partly shown) [Compound 896] | – | – | – | – | – | IC50 ([5]; HT-29 cells, 72 h): > 1000 nM; IC50 [1, 8]: > 1000 nM; IC50 [3, 10]: 100 to 1000 nM; IC50 ([4]; U-87MG cells): 500 to 1000 nM |
| CNC(=O)c1ccccc1Nc1nc(Nc2ccc(N3CCN(C(=O)N[C@H]4CC[C@@H](NCCOCCC#Cc5cccc6c5CN(C5CCC(=O)NC5=O)C6=O)CC4)CC3)nc2)ncc1Cl (stereo partly shown) [UB-181141] | 100 to 1000 | 100 to 1000 | < 10 | 100 to 1000 | 100 to 1000 | – |
| CNC(=O)c1ccccc1Nc1nc(Nc2ccc(N3CCN(C(=O)N[C@H]4CC[C@@H](NCCOCCC#Cc5ccc6c(c5)CN(C5CCC(=O)NC5=O)C6=O)CC4)CC3)nc2)ncc1Cl (stereo partly shown) [UB-181142] | 100 to 1000 | 100 to 1000 | < 10 | 100 to 1000 | 100 to 1000 | – |
| CNC(=O)c1ccccc1Nc1nc(Nc2ccc(N3CCN(C(=O)N[C@H]4CC[C@@H](NCCC#Cc5ccc6c(c5)CN(C5CCC(=O)NC5=O)C6=O)CC4)CC3)nc2)ncc1Cl (stereo partly shown) [UB-181169] | > 1000 | 100 to 1000 | 10 to 100 | 100 to 1000 | 10 to 100 | – |
| CNC(=O)c1ccccc1Nc1nc(Nc2ccc(N3CCN(C(=O)N[C@H]4CC[C@@H](NCCC#Cc5cccc6c5CN(C5CCC(=O)NC5=O)C6=O)CC4)CC3)nc2)ncc1Cl (stereo partly shown) [UB-181173] | > 1000 | > 1000 | 10 to 100 | > 1000 | 10 to 100 | – |
| CNC(=O)c1ccccc1Nc1nc(Nc2ccc(N3CCN(C(=O)N[C@H]4CC[C@H](NCCC#Cc5ccc6c(c5)CN(C5CCC(=O)NC5=O)C6=O)CC4)CC3)nc2)ncc1Cl (stereo partly shown) [UB-181174] | > 1000 | > 1000 | 10 to 100 | 10 to 100 | 10 to 100 | – |
| CNC(=O)c1ccccc1Nc1nc(Nc2ccc(N3CCN(C(=O)N[C@H]4CC[C@@H](N[C@H]5C[C@H](C#Cc6ccc7c(c6)CN(C6CCC(=O)NC6=O)C7=O)C5)CC4)CC3)cc2)ncc1Cl (stereo partly shown) [UB-181181] | > 1000 | 100 to 1000 | 10 to 100 | > 1000 | 10 to 100 | – |
| CNC(=O)c1ccccc1Nc1nc(Nc2ccc(N3CCN(C(=O)N[C@H]4CC[C@@H](N(C)CCC#Cc5ccc6c(c5)CN(C5CCC(=O)NC5=O)C6=O)CC4)CC3)cc2)ncc1Cl (stereo partly shown) [UB-181185] | 10 to 100 | 10 to 100 | < 10 | 10 to 100 | 10 to 100 | – |
| CNC(=O)c1ccccc1Nc1nc(Nc2ccc(N3CCC(C(=O)N[C@H]4CC[C@@H](NCCC#Cc5cccc6c5CN(C5CCC(=O)NC5=O)C6=O)CC4)CC3)cc2)ncc1Cl (stereo partly shown) [UB-181186] | 100 to 1000 | 10 to 100 | < 10 | 10 to 100 | < 10 | – |
| CNC(=O)c1ccccc1Nc1nc(Nc2ccc(N3CCN(C(=O)NC4CCC(NCCC#Cc5cccc6c5CN(C5CCC(=O)NC5=O)C6=O)CC4)CC3)cc2)ncc1Cl (stereo not shown) [UB-181187] | > 1000 | 100 to 1000 | 10 to 100 | > 1000 | 10 to 100 | – |
| CNC(=O)c1ccccc1Nc1nc(Nc2ccc(N3CCN(C(=O)N[C@H]4CC[C@@H](NCCC#Cc5ccc6c(c5)CN(C5CCC(=O)NC5=O)C6=O)CC4)CC3)cn2)ncc1Cl (stereo partly shown) [UB-181188] | > 1000 | 10 to 100 | 10 to 100 | 10 to 100 | 10 to 100 | – |

Further lines, with some results ahead:

| IC50 [6] [nM] | IC50 [1, 11] [nM] | IC50 [2, 12] [nM] | IC50 [3, 13] [nM] | IC50 [7] [nM] | SMILES | other results |
| --- | --- | --- | --- | --- | --- | --- |
| 100 to 1000 | 10 to 100 | < 10 | 100 to 1000 | 10 to 100 | CNC(=O)c1ccccc1Nc1nc(Nc2ccc(C3CCN(C(=O)N[C@H]4CC[C@H](NCCC#Cc5cccc6c5CN(C5CCC(=O)NC5=O)C6=O)CC4)CC3)cc2)ncc1Cl (stereo partly shown) [UB-181138] | – |
| 100 to 1000 | 100 to 1000 | < 10 | 10 to 100 | 100 to 1000 | CNC(=O)c1ccccc1Nc1nc(Nc2ccc(C3CCN(C(=O)N[C@H]4CC[C@@H](NCCC#Cc5ccc6c(c5)CN(C5CCC(=O)NC5=O)C6=O)CC4)CC3)cc2)ncc1Cl (stereo partly shown) [UB-181168] | – |
| 100 to 1000 | 10 to 100 | < 10 | 100 to 1000 | 100 to 1000 | NC(=O)c1ccccc1Nc1nc(Nc2ccc(C3CCN(C(=O)N[C@H]4CC[C@@H](NCCC#Cc5ccc6c(c5)CN(C5CCC(=O)NC5=O)C6=O)CC4)CC3)cc2)ncc1Cl (stereo partly shown) [UB-181182] | – |
| 100 to 1000 | 10 to 100 | < 10 | 10 to 100 | 10 to 100 | CNC(=O)c1ccccc1Nc1nc(Nc2ccc(N3CCC(C(=O)N[C@H]4CC[C@@H](NCCC#Cc5ccc6c(c5)CN(C5CCC(=O)NC5=O)C6=O)CC4)CC3)cc2)ncc1Cl (stereo partly shown) [UB-181184] | – |
| 10 to 100 | 10 to 100 | < 10 | < 10 | < 10 | NC(=O)c1ccccc1Nc1nc(Nc2ccc(N3CCN(C(=O)N[C@H]4CC[C@@H](NCCC#Cc5ccc6c(c5)CN(C5CCC(=O)NC5=O)C6=O)CC4)CC3)cc2)ncc1Cl (stereo partly shown) [UB-181189] | – |
| 10 to 100 | 10 to 100 | < 10 | 10 to 100 | 10 to 100 | NC(=O)c1ccccc1Nc1nc(Nc2ccc(N3CCN(C(=O)N[C@H]4CC[C@@H](NCCC#Cc5cccc6c5CN(C5CCC(=O)NC5=O)C6=O)CC4)CC3)cc2)ncc1Cl (stereo partly shown) [UB-181190] | – |
| > 1000 | > 1000 | < 10 | > 1000 | > 1000 | NC(=O)c1ccccc1Nc1nc(Nc2ccc(C3CCN(C(=O)N[C@H]4CC[C@@H](NCC(O)CC#Cc5ccc6c(c5)CN(C5CCC(=O)NC5=O)C6=O)CC4)CC3)cc2)ncc1Cl (stereo partly shown) [UB-181194] | – |
| 10 to 100 | 10 to 100 | < 10 | 10 to 100 | 10 to 100 | NC(=O)c1ccccc1Nc1nc(Nc2ccc(C3CCN(C(=O)N[C@H]4CC[C@@H](N[C@H]5C[C@H](C#Cc6ccc7c(c6)CN(C6CCC(=O)NC6=O)C7=O)C5)CC4)CC3)cc2)ncc1Cl (stereo partly shown) [UB-181198] | – |
